Biological target: T1, p53 Y220C (Homo sapiens, UniProt P04637, Y220C)
T1 construct: The recombinant protein was a truncation mutant containing only amino acids 94-312 of p53; made in house; host or cells: E. coli
Assay: In vitro DNA binding activity assay (HTRF / TR-FRET): stabilization of p53 Y220C and increase of its DNA binding activity
Assay type: biochemical
Settings: recombinant His-tagged p53 Y220C DNA binding domain (aa 94-312), biotin-labeled consensus DNA, incubated at 27° C. or 29° C. for 60 min
Summary of the method: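 Test compounds, diluted 3-fold in DMSO from 4.5 mM stocks, were incubated with bacterially expressed His-tagged p53 Y220C at room temperature for 15 min, and after a further step for 20 min. DNA binding was detected by time-resolved FRET between APC and europium labels. SC150 marks the concentration increasing binding by 50%.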

T1 sequence (P04637 94-312, change not shown): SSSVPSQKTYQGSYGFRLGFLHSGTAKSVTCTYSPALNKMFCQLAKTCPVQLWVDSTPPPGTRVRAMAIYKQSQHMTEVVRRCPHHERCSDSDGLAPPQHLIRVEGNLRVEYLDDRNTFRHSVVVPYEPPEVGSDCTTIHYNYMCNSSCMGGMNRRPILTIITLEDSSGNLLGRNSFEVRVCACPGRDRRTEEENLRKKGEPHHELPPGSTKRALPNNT

SMILES | SC150 (concentration of the compound required to increase the DNA binding activity by 50%)
COc1cc(S(C)(=O)=O)ccc1NCC#Cc1cc2c(NC3CC4CCC(C3)N4C)cccc2n1CC(F)(F)F (stereo not drawn) [Compound 990A, 2-{3-[(4-methanesulfonyl-2-methoxyphenyl)amino]prop-1-yn-1-yl}-N-{8-methyl-8-azabicyclo[3.2.1]octan-3-yl}-1-(2,2,2-trifluoroethyl)-1H-indol-4-amine] | + (+ = 0 μM ≤ SC150 < 0.05 μM)
CS(=O)(=O)c1ccc(NCC#Cc2cc3c(NC4CCOCC4)cccc3n2CC(F)(F)F)c(OC(F)(F)F)c1 [Compound 991A, 2-(3-{[4-methanesulfonyl-2-(trifluoromethoxy)phenyl]amino}prop-1-yn-1-yl)-N-(oxan-4-yl)-1-(2,2,2-trifluoroethyl)-1H-indol-4-amine] | + (+ = 0 μM ≤ SC150 < 0.05 μM)
COc1cc(S(=O)(=O)Nc2ccon2)ccc1NCC#Cc1cc2c(NC3CCOCC3)cccc2n1CC(F)(F)F [Compound 992A, 3-methoxy-4-[(3-{4-[(oxan-4-yl)amino]-1-(2,2,2-trifluoroethyl)-1H-indol-2-yl}prop-2-yn-1-yl)amino]-N-(1,2-oxazol-3-yl)benzene-1-sulfonamide] | + (+ = 0 μM ≤ SC150 < 0.05 μM)
COc1cc(S(=O)(=O)NC2CCOCC2)ccc1NCC#Cc1cc2c(NC3CCOCC3)cccc2n1CC(F)(F)F [Compound 993A, 3-methoxy-N-(oxan-4-yl)-4-[(3-{4-[(oxan-4-yl)amino]-1-(2,2,2-trifluoroethyl)-1H-indol-2-yl}prop-2-yn-1-yl)amino]benzene-1-sulfonamide] | + (+ = 0 μM ≤ SC150 < 0.05 μM)
COc1cc(S(=O)(=O)Nc2cc(C)on2)ccc1NCC#Cc1cc2c(NC3CCOCC3)cccc2n1CC(F)(F)F [Compound 994A, 3-methoxy-N-(5-methyl-1,2-oxazol-3-yl)-4-[(3-{4-[(oxan-4-yl)amino]-1-(2,2,2-trifluoroethyl)-1H-indol-2-yl}prop-2-yn-1-yl)amino]benzene-1-sulfonamide] | + (+ = 0 μM ≤ SC150 < 0.05 μM)
COc1cc(C(C)(C)C#N)ncc1NCC#Cc1cc2c(NC3CCOCC3)cccc2n1CC(F)(F)F [Compound 995A, 2-{4-methoxy-5-[(3-{4-[(oxan-4-yl)amino]-1-(2,2,2-trifluoroethyl)-1H-indol-2-yl}prop-2-yn-1-yl)amino]pyridin-2-yl}-2-methylpropanenitrile] | + (+ = 0 μM ≤ SC150 < 0.05 μM)
COc1cc(S(C)(=O)=O)ccc1NCC#Cc1cc2c(NC3CCOCC3)cc(F)cc2n1CC(F)(F)F [Compound 997A, 6-fluoro-2-{3-[(4-methanesulfonyl-2-methoxyphenyl)amino]prop-1-yn-1-yl}-N-(oxan-4-yl)-1-(2,2,2-trifluoroethyl)-1H-indol-4-amine] | + (+ = 0 μM ≤ SC150 < 0.05 μM)
COc1cc(S(N)(=O)=O)ccc1NCC#Cc1cc2c(NC3CCOCC3)cc(F)cc2n1CC(F)(F)F [Compound 998A, 4-[(3-{6-fluoro-4-[(oxan-4-yl)amino]-1-(2,2,2-trifluoroethyl)-1H-indol-2-yl}prop-2-yn-1-yl)amino]-3-methoxybenzene-1-sulfonamide] | + (+ = 0 μM ≤ SC150 < 0.05 μM)
CS(=O)(=O)c1ccc(NCC#Cc2cc3c(NC4CCOCC4)cccc3n2CC(F)(F)F)c(O)c1 [Compound 1009A, 5-methanesulfonyl-2-[(3-{4-[(oxan-4-yl)amino]-1-(2,2,2-trifluoroethyl)-1H-indol-2-yl}prop-2-yn-1-yl)amino]phenol] | + (+ = 0 μM ≤ SC150 < 0.05 μM)
COc1cc(S(N)(=O)=O)ccc1NCC#Cc1cc2c(NC3CCOCC3)c(OC)ccc2n1CC(F)(F)F [Compound 1010A, 3-methoxy-4-[(3-{5-methoxy-4-[(oxan-4-yl)amino]-1-(2,2,2-trifluoroethyl)-1H-indol-2-yl}prop-2-yn-1-yl)amino]benzene-1-sulfonamide] | ++++ (++++ = 0.2 μM ≤ SC150 < 1 μM)
COc1cc(S(C)(=O)=O)ccc1NCC#Cc1cc2c(NC3CCOCC3)c(OC)ccc2n1CC(F)(F)F [Compound 1012A, 2-{3-[(4-methanesulfonyl-2-methoxyphenyl)amino]prop-1-yn-1-yl}-5-methoxy-N-(oxan-4-yl)-1-(2,2,2-trifluoroethyl)-1H-indol-4-amine] | ++++ (++++ = 0.2 μM ≤ SC150 < 1 μM)
COc1cc(NC2CCOCC2)c2cc(C#CCNc3ccc(S(N)(=O)=O)cc3OC)n(CC(F)(F)F)c2c1 [Compound 1013A, 3-methoxy-4-[(3-{6-methoxy-4-[(oxan-4-yl)amino]-1-(2,2,2-trifluoroethyl)-1H-indol-2-yl}prop-2-yn-1-yl)amino]benzene-1-sulfonamide] | +++ (+++ = 0.1 μM ≤ SC150 < 0.2 μM)

Other lines, results leading:

SC150 (concentration of the compound required to increase the DNA binding activity by 50%) | SMILES
+ (+ = 0 μM ≤ SC150 < 0.05 μM) | CCC(=O)OCC(CNC(=O)c1ccc(NCC#Cc2cc3c(N[C@@H]4CCN(C)C[C@@H]4F)cccc3n2CC(F)(F)F)c(OC)c1)OC(=O)CC (stereo partly drawn) [Compound 971A, 1-[(4-{[3-(4-{[(3S,4R)-3-fluoro-1-methylpiperidin-4-yl]amino}-1-(2,2,2-trifluoroethyl)-1H-indol-2-yl)prop-2-yn-1-yl]amino}-3-methoxyphenyl)formamido]-3-(propanoyloxy)propan-2-ylpropanoate]
+ (+ = 0 μM ≤ SC150 < 0.05 μM) | COc1cc(C(=O)NC(C)COC(=O)C(C)C)ccc1NCC#Cc1cc2c(N[C@@H]3CCN(C)C[C@@H]3F)cccc2n1CC(F)(F)F (stereo partly drawn) [Compound 972A, 2-[(4-{[3-(4-{[(3S,4R)-3-fluoro-1-methylpiperidin-4-yl]amino}-1-(2,2,2-trifluoroethyl)-1H-indol-2-yl)prop-2-yn-1-yl]amino}-3-methoxyphenyl)formamido]propyl 2-methylpropanoate]
+ (+ = 0 μM ≤ SC150 < 0.05 μM) | COc1cc(S(C)(=O)=O)ccc1NCC#Cc1cc2c(NC3CCCN(C)CC3)cccc2n1CC(F)(F)F (stereo not drawn) [Compound 988A, 2-{3-[(4-methanesulfonyl-2-methoxyphenyl)amino]prop-1-yn-1-yl}-N-(1-methylazepan-4-yl)-1-(2,2,2-trifluoroethyl)-1H-indol-4-amine]
+ (+ = 0 μM ≤ SC150 < 0.05 μM) | COCC(O)CN1CCCC(Nc2cccc3c2cc(C#CCNc2ccc(S(C)(=O)=O)cc2OC)n3CC(F)(F)F)CC1 (stereo not drawn) [Compound 989A, 1-{4-[(2-{3-[(4-methanesulfonyl-2-methoxyphenyl)amino]prop-1-yn-1-yl}-1-(2,2,2-trifluoroethyl)-1H-indol-4-yl)amino]azepan-1-yl}-3-methoxypropan-2-ol]
+ (+ = 0 μM ≤ SC150 < 0.05 μM) | COc1cc(S(=O)(=O)N(C)CCO)ccc1NCC#Cc1cc2c(NC3CCOCC3)cccc2n1CC(F)(F)F [Compound 996A, N-(2-hydroxyethyl)-3-methoxy-N-methyl-4-[(3-{4-[(oxan-4-yl)amino]-1-(2,2,2-trifluoroethyl)-1H-indol-2-yl}prop-2-yn-1-yl)amino]benzene-1-sulfonamide]
+ (+ = 0 μM ≤ SC150 < 0.05 μM) | COc1cc(S(=O)(=O)N(C)C)ccc1NCC#Cc1cc2c(NC3CCOCC3)cccc2n1CC(F)(F)F [Compound 999A, 3-methoxy-N,N-dimethyl-4-[(3-{4-[(oxan-4-yl)amino]-1-(2,2,2-trifluoroethyl)-1H-indol-2-yl}prop-2-yn-1-yl)amino]benzene-1-sulfonamide]
+ (+ = 0 μM ≤ SC150 < 0.05 μM) | COc1cc(S(=O)(=O)N2CCN(C(C)=O)CC2)ccc1NCC#Cc1cc2c(NC3CCOCC3)cccc2n1CC(F)(F)F [Compound 1001A, 1-(4-{3-methoxy-4-[(3-{4-[(oxan-4-yl)amino]-1-(2,2,2-trifluoroethyl)-1H-indol-2-yl}prop-2-yn-1-yl)amino]benzenesulfonyl}piperazin-1-yl)ethan-1-one]
+ (+ = 0 μM ≤ SC150 < 0.05 μM) | COc1cc(S(=O)(=O)N2CCOCC2)ccc1NCC#Cc1cc2c(NC3CCOCC3)cccc2n1CC(F)(F)F [Compound 1002A, 2-(3-{[2-methoxy-4-(morpholine-4-sulfonyl)phenyl]amino}prop-1-yn-1-yl)-N-(oxan-4-yl)-1-(2,2,2-trifluoroethyl)-1H-indol-4-amine]
+ (+ = 0 μM ≤ SC150 < 0.05 μM) | CNC(=O)c1ccc(NCC#Cc2cc3c(NC4CCOCC4)cccc3n2CC(F)(F)F)c(OC)c1 [Compound 1003A]
+ (+ = 0 μM ≤ SC150 < 0.05 μM) | COc1cc(S(=O)(=O)N(CCO)CCO)ccc1NCC#Cc1cc2c(NC3CCOCC3)cccc2n1CC(F)(F)F [Compound 1007A, N,N-bis(2-hydroxyethyl)-3-methoxy-4-[(3-{4-[(oxan-4-yl)amino]-1-(2,2,2-trifluoroethyl)-1H-indol-2-yl}prop-2-yn-1-yl)amino]benzene-1-sulfonamide]
+ (+ = 0 μM ≤ SC150 < 0.05 μM) | CNS(=O)(=O)c1ccc(NCC#Cc2cc3c(NC4CCOCC4)cccc3n2CC(F)(F)F)c(OC)c1 [Compound 1008A]
+ (+ = 0 μM ≤ SC150 < 0.05 μM) | COc1cc(S(=O)(=O)N2CCN(C)CC2)ccc1NCC#Cc1cc2c(NC3CCOCC3)cccc2n1CC(F)(F)F [Compound 1011A, 2-[3-({2-methoxy-4-[(4-methylpiperazin-1-yl)sulfonyl]phenyl}amino)prop-1-yn-1-yl]-N-(oxan-4-yl)-1-(2,2,2-trifluoroethyl)-1H-indol-4-amine]

— patent US12428406B2 (PMV Pharmaceuticals, Inc., priority 2019, dated 2025)
